Assay results from patent publication US20230158152A1, “PROTEOLYSIS REGULATOR AND METHOD FOR USING SAME” (MEDSHINE DISCOVERY INC., priority 2020, published 2023).

System: human lung cancer NCI-H2228 cells subcutaneous xenograft tumor
Assay: In vivo pharmacodynamic study in subcutaneous xenograft tumor NOD SCID mouse model of human lung cancer NCI-H2228 cells
Design: species or system NOD SCID mice
Conditions: 50 mg/kg subcutaneous injection once a day
Procedure: Human lung cancer cell NCI-H2228 (ATCC® CRL-5935™) was cultured in vitro in an adherent monolayer in RPMI 1640 medium supplemented with 10% fetal bovine serum, 100 U/mL penicillin and 100 μg/mL streptomycin in an incubator at 37° C. and 5% CO2. Cells were passaged by routine digestion with trypsin-EDTA twice a week. When the cell saturation was 80%-90% and the number met the requirement, the cells are collected, counted, and inoculated.
NOD SCID mice, female, 6-8 weeks old, weighing 18-22 grams.
0.2 mL (10×10^6 cells) of NCI-H2228 cells (with matrigel, v/v 1:1) were subcutaneously inoculated into the right back of each mouse. The administration by group was started when the average tumor volume reached 171 mm^3. One administration cycle comprised seven days, with administration once a day. The assay compounds were administered by subcutaneous injection for a total of four cycles. The subcutaneous injection doses of the assay compounds WX001 and WX002 were both 50 mg/kg. Tumor diameter was measured twice a week with a vernier caliper, and tumor volume was measured in cubic millimeters and calculated by the following formula: V=0.5a×b^2, where a and b are the long and short diameters of the tumor, respectively. The tumor-inhibitory efficacy of the assay compounds was evaluated by using TGI (%). TGI (%) reflects a tumor growth inhibition rate. TGI (%)=[1−(Average tumor volume at the end of administration of a treatment group−Average tumor volume at the beginning of administration of the treatment group)/(Average tumor volume at the end of treatment of a vehicle control group−Average tumor volume at the beginning of treatment of the vehicle control group)]×100%.

## Cc1cc(Nc2ncc(Cl)c(Nc3ccccc3S(=O)(=O)C(C)C)n2)c(OC(C)C)cc1C1CCN(CC(=O)NCCOc2ccc3occ(C4CCC(=O)NC4=O)c3c2)CC1 (stereo not drawn) [WX001]
Day 1
  Tumor volume (Day 1): 172 ± 12 mm^3
Day 28
  TGI (Day 28): 111.22%
  Tumor volume (Day 28): 102 ± 5 mm^3
